Data published in ChEMBL document CHEMBL5260810, “Inhibition of bromodomain-containing protein 9 for the prevention of epigenetically-defined drug resistance” (Bioorg Med Chem Lett, 2017).
Activity calls are given as the source filed them. The calls are words filed in the database; no cut-off is given here.

Assays:
BXPC-3 = test: Antiproliferative activity against human BxPC-3 cells assessed as reduction in colony formation up to 20 uM supplemented with fresh medium containing compound every 3 days for 9 days by MTT staining based clonogenic assay; assay type: functional, cell-based; conditions: time 9.0 day
MDA-MB-231 = test: Antiproliferative activity against human MDA-MB-231 cells assessed as reduction in colony formation upto 20 uM supplemented with fresh medium containing compound every 3 days for 9 days by MTT staining based clonogenic assay; assay type: functional, cell-based; conditions: time 9.0 day
[1] = Cytotoxicity against mouse LL2 cells measured after 8 days; assay type: functional, cell-based; conditions: Lewis lung carcinoma, 192 h
NCI-H929 = test: Cytotoxicity against human NCI-H929 cells measured after 8 days; assay type: functional, cell-based; conditions: NCI-H929, 192 h
DOHH-2 = test: Cytotoxicity against human DOHH-2 cells measured after 8 days; assay type: functional, cell-based; conditions: DOHH-2, 192 h
[2] = Cytotoxicity against human JJ012 cells measured after 8 days; assay type: functional, cell-based; conditions: JJ012, 192 h
[3] = Cytotoxicity against human MR1-3 cells measured after 8 days; assay type: functional, cell-based; conditions: MR1-3, 192 h
[4] = Cytotoxicity against human KR7110 cells measured after 8 days; assay type: functional, cell-based; conditions: KR7110, 192 h
CaR-1 = test: Cytotoxicity against human CaR-1 cells measured after 8 days; assay type: functional, cell-based; conditions: CaR-1, 192 h
[5] = Cytotoxicity against human PK-59 cells measured after 8 days; assay type: functional, cell-based; conditions: PK-59, 192 h
MC-38 = test: Cytotoxicity against mouse MC38 ovalbumin cells measured after 8 days; assay type: functional, cell-based; conditions: MC-38, 192 h
SW1463 = test: Cytotoxicity against human SW1463 cells measured after 8 days; assay type: functional, cell-based; conditions: SW1463, 192 h
COLO-800 = test: Cytotoxicity against human COLO-800 cells measured after 8 days; assay type: functional, cell-based; conditions: COLO-800, 192 h
[6] = Cytotoxicity against human KATO III stomach cancer cell line measured after 8 days; assay type: functional, cell-based; conditions: 192 h
RT-4 = test: Cytotoxicity against human RT-4 cells measured after 8 days; assay type: functional, cell-based; conditions: RT-4, 192 h
[7] = molecular target: T1, Bromodomain-containing protein 9 (Homo sapiens) (UniProt Q9H8M2); test: Inhibition of BRD9 in human PC-9 cells assessed as reduction in ALDH1A1 gene expression at 0.5 uM preincubated with erlotinib for 8 days followed by compound addition and measured after 24 hrs by RNA sequencing analysis; assay type: cell-based
T1 sequence (whole entry): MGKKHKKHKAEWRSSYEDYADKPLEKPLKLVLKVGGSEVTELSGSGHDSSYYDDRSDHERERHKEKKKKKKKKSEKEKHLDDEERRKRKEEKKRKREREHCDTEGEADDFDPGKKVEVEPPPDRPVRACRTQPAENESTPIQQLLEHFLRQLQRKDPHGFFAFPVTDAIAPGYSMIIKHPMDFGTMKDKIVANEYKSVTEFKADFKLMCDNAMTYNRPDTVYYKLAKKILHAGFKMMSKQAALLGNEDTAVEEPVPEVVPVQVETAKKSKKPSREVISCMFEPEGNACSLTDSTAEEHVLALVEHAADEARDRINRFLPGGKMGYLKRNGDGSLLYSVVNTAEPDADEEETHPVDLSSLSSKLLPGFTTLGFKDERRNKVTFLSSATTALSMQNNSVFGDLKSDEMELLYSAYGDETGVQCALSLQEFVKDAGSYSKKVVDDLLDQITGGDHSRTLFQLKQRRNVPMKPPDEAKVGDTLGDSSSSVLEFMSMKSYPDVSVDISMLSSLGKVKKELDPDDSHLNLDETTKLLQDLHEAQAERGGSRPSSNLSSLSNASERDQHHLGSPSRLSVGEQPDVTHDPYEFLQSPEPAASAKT

[8] = Cytotoxicity against human KMS-28PE cells measured after 3 days; assay type: functional, cell-based; conditions: 72 h
U-937 = test: Cytotoxicity against human U-937 cells measured after 3 days; assay type: functional, cell-based; conditions: U-937, 72 h
KG-1 = test: Cytotoxicity against human KG-1 cells measured after 3 days; assay type: functional, cell-based; conditions: KG-1, 72 h
[9] = Cytotoxicity against human KMM-1 cells measured after 3 days; assay type: functional, cell-based; conditions: KMM-1, 72 h
SNU-475 = test: Cytotoxicity against human SNU-475 cells measured after 3 days; assay type: functional, cell-based; conditions: SNU-475, 72 h
HCC95 = test: Cytotoxicity against human HCC95 cells measured after 3 days; assay type: functional, cell-based; conditions: HCC95, 72 h
[10] = Cytotoxicity against human HCC2450 cells measured after 3 days; assay type: functional, cell-based; conditions: HCC2450, 72 h
OPM-2 = test: Cytotoxicity against human OPM-2 cells measured after 3 days; assay type: functional, cell-based; conditions: OPM-2, 72 h
EJM = test: Cytotoxicity against human EJM cells measured after 3 days; assay type: functional, cell-based; conditions: 72 h
KMS-11 = test: Cytotoxicity against human KMS-11 cells measured after 3 days; assay type: functional, cell-based; conditions: KMS-11, 72 h
[11] = Cytotoxicity against human NCE-G 118 cells measured after 3 days; assay type: functional, cell-based; conditions: NCE-G 118, 72 h
LN-229 = test: Cytotoxicity against human LN-229 cells measured after 3 days; assay type: functional, cell-based; conditions: LN-229, 72 h
[12] = Cytotoxicity against human NCE-G 140 cells measured after 3 days; assay type: functional, cell-based; conditions: NCE-G 140, 72 h
[13] = Cytotoxicity against human EB1 cells measured after 3 days; assay type: functional, cell-based; conditions: EB1, 72 h
SU-DHL-8 = test: Cytotoxicity against human SU-DHL-8 cells measured after 3 days; assay type: functional, cell-based; conditions: SU-DHL-8, 72 h
SK-MES-1 = test: Cytotoxicity against human SK-MES-1 cells measured after 3 days; assay type: functional, cell-based; conditions: SK-MES-1, 72 h
[14] = Cytotoxicity against human KPL-4 cells measured after 3 days; assay type: functional, cell-based; conditions: KPL4, 72 h
MFM-223 = test: Cytotoxicity against human MFM-223 cells measured after 3 days; assay type: functional, cell-based; conditions: MFM-223, 72 h
SUM149PT = test: Cytotoxicity against human SUM149PT cells measured after 3 days; assay type: functional, cell-based; conditions: 72 h
[15] = Cytotoxicity against human VP267 cells measured after 3 days; assay type: functional, cell-based; conditions: VP267, 72 h
[16] = Cytotoxicity against human YMB-1 cells measured after 3 days; assay type: functional, cell-based; conditions: YMB-1, 72 h
BT-474 = test: Cytotoxicity against human BT-474 cells measured after 3 days; assay type: functional, cell-based; conditions: BT-474, 72 h
[17] = Cytotoxicity against human HCC1428 cells measured after 3 days; assay type: functional, cell-based; conditions: HCC1428, 72 h
[18] = Cytotoxicity against human VP229 cells measured after 3 days; assay type: functional, cell-based; conditions: VP229, 72 h
[19] = Cytotoxicity against human OVCA 420 cells measured after 3 days; assay type: functional, cell-based; conditions: OVCA 420, 72 h
TOV21G = test: Cytotoxicity against human TOV-21G cells measured after 3 days; assay type: functional, cell-based; conditions: 72 h
[20] = Cytotoxicity against human COV362 cells measured after 3 days; assay type: functional, cell-based; conditions: COV362, 72 h
HCC2935 = test: Cytotoxicity against human HCC2935 cells after 8 days; assay type: functional, cell-based; conditions: HCC2935, 192 h
[21] = Cytotoxicity against human HCC3153 cells measured after 8 days; assay type: functional, cell-based; conditions: HCC3153, 192 h
TERT-RPE1 = test: Cytotoxicity against hTERT-RPE1 cells measured after 8 days; assay type: functional, cell-based; conditions: Homo sapiens, RPE-1, 192 h
[22] = Cytotoxicity against human HCC15 cells after 8 days; assay type: functional, cell-based; conditions: HCC15, 192 h

## C/C=C/Cn1cc(-c2ccc(C(C)(C)O)cc2OC)c2cc[nH]c2c1=O
BXPC-3
  Activity: inactive
MDA-MB-231
  Activity: inactive
[1]
  IC50: 20 µM
NCI-H929
  IC50: 20 µM
DOHH-2
  IC50: 10.7 µM
[2]
  IC50: 20 µM
[3]
  IC50: 20 µM
[4]
  IC50: 20 µM
CaR-1
  IC50: 20 µM
[5]
  IC50: 20 µM
MC-38
  IC50: 20 µM
SW1463
  IC50: 20 µM
COLO-800
  IC50: 20 µM
[6]
  IC50: 20 µM
RT-4
  IC50: 20 µM

## C/C=C/Cn1cc(-c2ccc(C(=O)N3CCOCC3)cc2)c2cc[nH]c2c1=O
[1]
  IC50: 20 µM
NCI-H929
  IC50: 6.04 µM
DOHH-2
  IC50: 16.1 µM
[2]
  IC50: 20 µM
[3]
  IC50: 20 µM
[4]
  IC50: 20 µM
CaR-1
  IC50: 20 µM
[5]
  IC50: 20 µM
MC-38
  IC50: 16.7 µM
SW1463
  IC50: 20 µM
COLO-800
  IC50: 20 µM
[6]
  IC50: 20 µM
RT-4
  IC50: 20 µM

## C/C=C/Cn1cc(-c2cc(OC)c(C(=O)N3CCOCC3)cc2OC)c2cc(C)[nH]c2c1=O
[7]
  inhibition: Active
[8]
  IC50: 5 µM
U-937
  IC50: 5 µM
KG-1
  IC50: 5 µM
[9]
  IC50: 5 µM
SNU-475
  IC50: 5 µM
HCC95
  IC50: 5 µM
[10]
  IC50: 5 µM
OPM-2
  IC50: 5 µM
EJM
  IC50: 5 µM
KMS-11
  IC50: 5 µM
[11]
  IC50: 5 µM
LN-229
  IC50: 5 µM
[12]
  IC50: 5 µM
[13]
  IC50: 5 µM
SU-DHL-8
  IC50: 5 µM
SK-MES-1
  IC50: 5 µM
[14]
  IC50: 5 µM
MFM-223
  IC50: 5 µM
SUM149PT
  IC50: 5 µM
[15]
  IC50: 5 µM
[16]
  IC50: 5 µM
BT-474
  IC50: 5 µM
[17]
  IC50: 5 µM
[18]
  IC50: 5 µM
[19]
  IC50: 5 µM
TOV21G
  IC50: 5 µM
[20]
  IC50: 5 µM
HCC2935
  IC50: 2 µM
[21]
  IC50: 2 µM
TERT-RPE1
  IC50: 2 µM
[22]
  IC50: 2 µM
